Key:
[1] = tested on: transgenic plants overexpressing miR164; experiment: Restoration of fertility of transgenic plants overexpressing miR164 by external application of hormones; assay type: in vivo, rice; conditions: two T0 transgenic plants; four phytohormones (IAA, NAA, KT, 6-BA) applied continually from tillering stage to grain filling stage; FIG. 7
Text: Two T0 transgenic plants overexpressing miR164 were continually subjected to external application of four phytohormones, indoleacetic acid (IAA), naphthaleneacetic acid (NAA), kinetin (KT), and 6-benzylaminopurine (6-BA) from tillering stage to grain filling stage, and compared with the transgenic plants overexpressing miR164 grown normally. […] That the fertility of transgenic rice plants overexpressing miR164 could be restored by external application of hormones can be taken advantage of to conveniently use a transgenic rice plant to breed a sterile line (without application of hormones) or a maintainer line (by external application of hormones to allow the sterile line to produce seeds and to be reproduced; however the next generation is still sterile without externally applied hormones), thereby achieving “the double usage of a single line” for the breeding of hybrid rice.

miR164 = experiment: Expression level of mature miR164 after phytohormone treatment, Northern blotting; assay type: in vivo, rice variety Minghui 63 (Oryza sativa L. ssp. Indica); conditions: hormone sprayed onto rice plants at 4-leaf stage; for change in expression of miR164 after phytohormone treatment: leaves, Northern blotting, FIG. 3
Experimental: The indica rice variety “Minghui 63” was used for expression profile analysis. Phytohormone treatment was carried out by evenly spraying the hormones onto the surfaces of the rice plants at the 4-leaf stage obtained from seeds which had been induced to germinate and cultivated under normal growth conditions for 18-20 days. The plants treated with kinetin and gibberellin were sampled before treatment as well as 1 min, 5 min, 10 min, 20 min, 30 min, 1 h, and 3 h after treatment. The plants treated with naphthaleneacetic acid were sampled before treatment as well as 30 min, 3 h, 9 h and 24 h after treatment. The plants treated with brassinolide were sampled before treatment as well as 15 min, 30 min, 1 h, 3 h, 6 h, 9 h and 21 h after treatment. Light treatment of etiolated shoots was performed by subjecting seeds to induction of germination and continuous cultivation in dark for 14 days followed by transferring the etiolated shoots to normal lighting conditions. Samples were taken before light treatment as well as 3 h, 6 h and 9 h after light treatment. Total RNA was extracted from leaves using Trizol reagent (Invitrogen Corp.), and then transferred to membrane as described by Xie et al. (Xie K, Wu C, and Xiong L. Genomic organization, differential expression, and interaction of SQUAMOSA promoter-binding-like transcription factors and microRNA156 in rice. Plant Physiol, 2006, 142: 280-293). Northern hybridization was performed using miR164 as the probe. […] The expression level of miR164 increased 24 hours after naphthaleneacetic acid (NAA) treatment.

rice root system = experiment: Root system phenotype of transgenic plants overexpressing miR164 on 1/2 MS medium; assay type: in vivo; conditions: overexpression under ubiquitin promoter; 10 days on 1/2 MS basal media; FIG. 5
Experimental: In this example, transgenic plants overexpressing miR164 (FIG. 4) and wild-type plants were grown in ½ MS medium and observed for their phenotypes. The procedure was carried out as follows, Rice seeds from transgenic lines overexpressing miR164 were husked and disinfected (75% alcohol treatment for 3 minutes followed by 0.15% HgCl2 treatment for 30 minutes, and rinsed with sterile water for several times), and then allowed to germinate on the ½ MS basal media containing 50 mg/L hygromycin. One day later, the rice seeds from wild-type control lines were placed on the ½ MS basal media without hygromycin and allowed to germinate. Two to three days later, well germinated and consistently grown seeds were transferred to ½ MS basal media and cultivated in an illumination incubator (which simulated natural growth condition of 14-hour light and 10-hour darkness) for 10 days for phenotype observation. More than 30 plants were selected for each of the transgenic and wild-type plant lines, and each experiment was run in triplicate.

rice pollens = experiment: Fertility phenotype of transgenic plants overexpressing miR164 (iodine staining of pollens); assay type: in vivo; conditions: overexpression under ubiquitin promoter; FIG. 6
Text: This abnormality made the glumes unable to open such that the filaments, although elongated, could not extend out of the glumes (FIG. 6B). […] Moreover, the ovaries of most of the transgenic plants overexpressing miR164 stopped growing or even died (FIG. 6C to 6E). The development of anthers in the transgenic plants overexpressing miR164 was abnormal. […] The pollens of the transgenic plants overexpressing miR164 were not in the normal globular shape, but were shrunken (FIG. 6F to 6K). […] The sterility of the transgenic plants overexpressing miR164 could be utilized to conveniently breed a rice sterile line for hybrid rice breeding.

| Molecule | seed production of transgenic plants overexpressing miR164 after external application of hormones [1] | change in expression of miR164 after phytohormone treatment (miR164) | also measured |
| --- | --- | --- | --- |
| c1ccc(CNc2ncnc3nc[nH]c23)cc1 [6-benzylaminopurine, 6-Benzylaminopurine] | produce seeds normally | – | – |
| c1coc(CNc2ncnc3[nH]cnc23)c1 [Kinetin] | produce seeds normally | decreased gradually | – |
| CC(C)[C@H](C)[C@@H](O)[C@H](O)[C@@H](C)[C@H]1CC[C@H]2[C@@H]3COC(=O)[C@H]4C[C@H](O)[C@H](O)C[C@]4(C)[C@H]3CC[C@]12C [brassinolide] | – | no obvious change | – |
| O=C(O)Cc1c[nH]c2ccccc12 [indoleacetic acid, Indole-3-acetic acid] | produce seeds normally | – | – |
| gibberellin | – | increased | time of peak miR164 expression after treatment (miR164; then dropping to the level before treatment): 10 min |
| miR164: mature microRNA (SEQ ID NO: 2) from the rice miR164 gene (SEQ ID NO: 1), overexpressed in rice under a ubiquitin promoter (UGGAGAAGCAGGGCACGUGCA; listed as Oryza sativa) | – | – | root system of transgenic plants versus wild-type plants (rice root system): obviously larger root systems; pollen fertility of transgenic plants (iodine staining) (rice pollens): completely sterile |

Reference: US8802929B2, “MIR164 gene that controls plant root system development and fertility and use thereof” (Huazhong Agricultural University, priority 2009, dated 2014)
